Results reported in patent US11680049B2, “Certain (2S)-N-[(1S)-1-cyano-2-phenylethyl]-1,4-oxazepane-2-carboxamides as dipeptidyl peptidase 1 inhibitors” (AstraZeneca AB, priority 2014, dated 2023).

Key:
[1] = Rat quantitative whole-body autoradiography (QWBA) studies, aortic retention; type: in vivo
[2] = described in literature (Schmidt et al. 1984); concomitant ultra-structural changes by electron microscopy; cited from earlier work

In the case of `N#Cc1ccc(-c2ccc(C[C@@H](C#N)NC(=O)C3(N)CCOCC3)cc2)cc1` [WO2010/128324 (Ex. 3), 4-amino-N-[(1S)-1-cyano-2-(4′-cyanobiphenyl-4-yl)ethyl]tetrahydro-2H-pyran-4-carboxamide], the “aortic retention in rat QWBA studies” value [1] is reported as “high level of aortic retention”.
For `CC(c1ccc(Cl)c(Cl)c1)N1N=C(N)CC1=O` (centres unmarked) [muzolimine], the “retention in the aorta in QWBA studies” value [2] is listed as “retained selectively in the aorta”.
